Experimental data reported in patent US10815235B2, “Polycyclic compounds and uses thereof” (priority 2017, dated 2020).
Where two headings read alike, the source gives them in different places.

What was measured:
[1] = molecular target: T1, Adrenergic α1A receptor (Homo sapiens, UniProt P35348); experiment: IPOne HTRF assay, agonist and antagonist mode; format: cell-based
T1 construct: expressed in transfected cells; host or cells: CHO-K1
T1 sequence (P35348 1-466): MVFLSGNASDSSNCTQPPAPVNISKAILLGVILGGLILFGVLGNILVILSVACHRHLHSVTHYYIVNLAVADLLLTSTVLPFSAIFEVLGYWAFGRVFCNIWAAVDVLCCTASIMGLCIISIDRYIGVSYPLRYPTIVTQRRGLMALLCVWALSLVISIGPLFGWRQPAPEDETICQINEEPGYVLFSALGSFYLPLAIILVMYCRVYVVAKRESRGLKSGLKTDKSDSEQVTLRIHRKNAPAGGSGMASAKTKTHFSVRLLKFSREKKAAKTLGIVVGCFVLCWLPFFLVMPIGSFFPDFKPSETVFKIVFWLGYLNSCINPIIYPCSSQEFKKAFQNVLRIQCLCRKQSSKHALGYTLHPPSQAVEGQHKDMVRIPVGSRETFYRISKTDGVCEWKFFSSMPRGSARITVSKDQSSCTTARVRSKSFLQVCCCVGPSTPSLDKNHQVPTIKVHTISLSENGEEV
Protocol: (§1) Antagonist and agonist activities were determined using an IPOne […] HTRF assay. The assay was prepared as follows: CHO-K1 cells expressing human recombinant Adrenergic α1A, Serotonin 5-HT2A, and 5-HT2B receptors grown to mid-log phase in culture media without antibiotics were detached with PBS-EDTA, centrifuged and resuspended in medium without antibiotics buffer. 20,000 cells were distributed in a 96 well plate and incubated overnight at 37° C. with 5% CO2.
(§2) To analyze agonist activity, the medium was removed and 20 μl of assay buffer plus 20 μl of test compound or reference agonist were added in each well. The plate was incubated for 60 min. at 37° C. with 5% CO2. EC50 values were used to determine whether a compound acted as an agonist.
(§3) To analyze antagonist activity, 20 μl of test compound or reference antagonist was added and the plate is incubated for 15 min. at 37° C. in a humidified atmosphere of 95% air with 5% CO2, then 20 μl of reference agonist at a final concentration corresponding to the historical EC80 is added. The plate is incubated for 60 min. at 37° C. with 5% CO2. IP1-D2 reagent and anti-IP1 cryptate reagents are then dispensed in the wells and IP1 concentrations are then measured following the manufacturer recommendations. IC50 values were used to determine whether a compound acted as an antagonist.

[2] = molecular target: T2, Serotonin 5-HT2B receptor (Homo sapiens, UniProt P41595); experiment: IPOne HTRF assay, agonist and antagonist mode; format: cell-based
T2 construct: expressed in transfected cells; host or cells: CHO-K1
T2 sequence (P41595 whole entry): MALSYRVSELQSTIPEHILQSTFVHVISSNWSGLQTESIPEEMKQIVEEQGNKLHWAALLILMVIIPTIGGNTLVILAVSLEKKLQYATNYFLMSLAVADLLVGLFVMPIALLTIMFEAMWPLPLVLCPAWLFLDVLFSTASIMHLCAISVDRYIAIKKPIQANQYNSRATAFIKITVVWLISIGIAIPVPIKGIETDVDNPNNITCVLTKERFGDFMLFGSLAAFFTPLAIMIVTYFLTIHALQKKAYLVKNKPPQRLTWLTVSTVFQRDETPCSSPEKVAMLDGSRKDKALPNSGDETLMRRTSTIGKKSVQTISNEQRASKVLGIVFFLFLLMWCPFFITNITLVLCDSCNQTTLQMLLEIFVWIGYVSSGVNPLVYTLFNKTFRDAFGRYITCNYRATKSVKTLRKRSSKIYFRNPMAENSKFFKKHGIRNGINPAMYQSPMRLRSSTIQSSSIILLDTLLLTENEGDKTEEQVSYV
Protocol: as §1, §2, §3

[3] = molecular target: T3, Serotonin 5-HT2A receptor (Homo sapiens, UniProt P28223); experiment: IPOne HTRF assay, agonist and antagonist mode; format: cell-based
T3 construct: expressed in transfected cells; host or cells: CHO-K1
T3 sequence (P28223 whole entry): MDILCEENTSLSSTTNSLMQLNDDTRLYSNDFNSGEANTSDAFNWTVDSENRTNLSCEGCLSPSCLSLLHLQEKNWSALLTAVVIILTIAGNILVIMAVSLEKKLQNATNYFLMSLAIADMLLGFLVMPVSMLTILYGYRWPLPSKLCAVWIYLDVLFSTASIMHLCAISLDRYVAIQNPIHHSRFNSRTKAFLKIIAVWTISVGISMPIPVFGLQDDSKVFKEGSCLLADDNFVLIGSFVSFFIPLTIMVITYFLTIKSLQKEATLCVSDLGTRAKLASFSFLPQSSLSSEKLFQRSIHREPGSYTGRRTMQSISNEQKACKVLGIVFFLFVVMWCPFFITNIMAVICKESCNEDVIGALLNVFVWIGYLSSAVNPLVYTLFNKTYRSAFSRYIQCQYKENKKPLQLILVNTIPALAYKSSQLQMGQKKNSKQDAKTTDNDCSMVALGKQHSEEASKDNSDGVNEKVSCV
Protocol: as §1, §2, §3

[4] = molecular target: Serotonin 5-HT1B receptor (Homo sapiens, UniProt P28222); experiment: GTPγS Scintillation Proximity Assay, agonist and antagonist mode; format: biochemical
Chain of Serotonin 5-HT1B receptor (P28222 whole entry): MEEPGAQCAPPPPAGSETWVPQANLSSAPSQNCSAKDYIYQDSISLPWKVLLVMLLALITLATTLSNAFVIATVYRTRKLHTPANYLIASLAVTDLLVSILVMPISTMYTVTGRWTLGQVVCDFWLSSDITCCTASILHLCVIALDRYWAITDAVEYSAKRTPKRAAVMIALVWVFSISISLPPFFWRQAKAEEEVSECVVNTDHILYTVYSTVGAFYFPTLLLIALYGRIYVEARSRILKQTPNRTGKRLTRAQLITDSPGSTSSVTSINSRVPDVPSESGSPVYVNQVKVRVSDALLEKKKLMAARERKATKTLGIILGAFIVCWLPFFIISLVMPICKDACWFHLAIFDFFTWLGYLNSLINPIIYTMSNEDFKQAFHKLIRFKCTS
Protocol: Antagonist and agonist activities were determined using a GTPγS Scintillation Proximity Assay. The assay was prepared as follows: Membrane extracts were prepared from recombinant human Dopamine D2L, D3; Serotonin 5-HT1A, 5-HT1B, 5-HT1D and 5-HT1F receptors.
Samples were tested by proprietary biological assays by Ogeda S. A., Euroscreen FAST Business Unit, Rue Adrienne Bolland, 47 B-6041 Gosselies, Belgium. Each protein assay was prepared using the following conditions.
5-HT1B • Assay buffer: 20 mM HEPES pH 7.4; 100 mM NaCl, 10 μg/ml saponin, 3 mM MgCl2; • Membranes: recombinant 5-HT1B membrane extracts thawed on ice and diluted in assay buffer to give 1 mg/ml (10 μg/well) and kept on ice; • GDP: diluted in assay buffer to give a 3 μM final assay concentration; • Beads: PVT-WGA (Perkin Elmer, RPNQ001), diluted in assay buffer at 50 mg/ml (0.5 mg/well); and • GTPγ^35S: (PerkinElmer NEG030X), diluted in assay buffer to give 0.1 nM.
Membranes were mixed with GDP (volume:volume 1:1) and incubated for at least 15 min on ice. In parallel, GTPγ[^35S] is mixed with the beads (volume:volume 1:1) just before starting the reaction.
To determine agonist activity, the following reagents were added in the wells of an Optiplate (Perkin Elmer): 50 μL of test or reference ligand, 10 μL of assay buffer, 20 μl of the membranes:GDP mix, and 20 μL of the GTPγ[^35S]:beads mix. EC50 values were used to determine whether a compound acted as an agonist.
To determine antagonist activity, the following reagents were added in the wells of an Optiplate (Perkin Elmer): 50 μL of test or reference ligand, 20 μL of the membranes:GDP mix, then the plate is incubated 15 minutes at room temperature. After incubation, 10 μL of reference agonist at historical EC80 (final concentration) was added, followed by 20 μL of the GTPγ[^35S]:beads mix.
The plates were covered with a top seal, mixed on an orbital shaker for 2 min, and then incubated for 1 hour at room temperature. Then the plates were centrifuged for 10 min at 2000 rpm, incubated at room temperature 1 hour and counted for 1 min/well with a PerkinElmer TopCount reader. IC50 values were used to determine whether a compound acted as an antagonist.

[5] = IC50 value for the Adrenergic α1A receptor, antagonist mode, bound stated
[6] = IC50 value for the Serotonin 5-HT1B receptor, antagonist mode, bound stated
[7] = CHO-K1 cells, vs reference agonist at EC80, read-out: Antagonist Activity (IC50), 5-HT2B
[8] = antagonist mode, bound stated, read-out: IC50 value for the Serotonin 5-HT2B receptor
[9] = CHO-K1 cells, vs reference agonist at EC80, read-out: Antagonist Activity (IC50), 5-HT2A
[10] = antagonist mode, bound stated, read-out: IC50 value for the Serotonin 5-HT2A receptor
[11] = Antagonist Activity (IC50), α1A, CHO-K1 cells, vs reference agonist at EC80
[12] = CHO-K1 cells, read-out: Agonist Activity (EC50), 5-HT2A
[13] = agonist mode, bound stated, read-out: EC50 value for the Serotonin 5-HT2A receptor
[14] = Antagonist Activity (IC50), 5-HT1B, membrane extracts, vs reference agonist at EC80

CCN(CC(F)(F)F)C(=O)N[C@H]1C[C@@H]2c3cccc4[nH]c(C(F)(F)F)c(c34)C[C@H]2N(C)C1 [Compound A16H, 1-ethyl-3-((6aR,9S,10aR)-7-methyl-5-(trifluoromethyl)-4,6,6a,7,8,9,10,10a-octahydroindolo[4,3-fg]quinolin-9-yl)-1-(2,2,2-trifluoroethyl)urea]
IC50 ([1]; CHO-K1 cells, vs reference agonist at EC80, read-out: Antagonist Activity (IC50), α1A): 15 nM | IC50 [1, 5]: < 1000 nM | IC50 ([2]; Antagonist Activity (IC50), 5-HT2B, CHO-K1 cells, vs reference agonist at EC80): 16 nM | IC50 ([2]; IC50 value for the Serotonin 5-HT2B receptor, antagonist mode, bound stated): < 1000 nM | IC50 ([3]; Antagonist Activity (IC50), 5-HT2A, CHO-K1 cells, vs reference agonist at EC80): 16 nM | IC50 ([3]; IC50 value for the Serotonin 5-HT2A receptor, antagonist mode, bound stated): < 1000 nM | IC50 [4, 6]: < 1000 nM | IC50 ([4]; membrane extracts, vs reference agonist at EC80, read-out: Antagonist Activity (IC50), 5-HT1B): 340 nM

CC[C@@H](CO)NC(=O)[C@@H]1C[C@@H]2c3cccc4c3c(c(C3CC3)n4C)C[C@H]2N(C)C1 [Compound D13H, (6aR,9R,10aR)-5-cyclopropyl-N—((S)-1-hydroxybutan-2-yl)-4,7-dimethyl-4,6,6a,7,8,9,10,10a-octahydroindolo[4,3-fg]quinoline-9-carboxamide]
IC50 [2, 7]: 3.4 nM | IC50 [2, 8]: < 1000 nM | IC50 [3, 9]: 74 nM | IC50 [3, 10]: < 1000 nM | EC50 ([4]; Agonist Activity (EC50), 5-HT1B, membrane extracts): 430 nM | EC50 ([4]; EC50 value for the Serotonin 5-HT1B receptor, agonist mode, bound stated): < 1000 nM

CCN(CC)C(=O)N[C@H]1C[C@@H]2c3cccc4[nH]c(C(F)(F)F)c(c34)C[C@H]2N(C)C1 [Compound A9H, 1,1-diethyl-3-((6aR,9S,10aR)-7-methyl-5-(trifluoromethyl)-4,6,6a,7,8,9,10,10a-octahydroindolo[4,3-fg]quinolin-9-yl)urea]
IC50 [1, 11]: 9.1 nM | IC50 [1, 5]: < 1000 nM | IC50 [2, 7]: 23 nM | IC50 [2, 8]: < 1000 nM | IC50 [3, 9]: 110 nM | EC50 [3, 12]: 12 nM | EC50 [3, 13]: < 1000 nM | IC50 [3, 10]: < 1000 nM | IC50 [4, 14]: 110 nM | IC50 [4, 6]: < 1000 nM

CCN(CC)C(=O)N[C@H]1C[C@@H]2c3cccc4[nH]c(Br)c(c34)C[C@H]2N(C)C1 [Compound A8H, 3-((6aR,9S, 10aR)-5-bromo-7-methyl-4,6,6a,7,8,9,10,10a-octahydroindolo[4,3-fg]quinolin-9-yl)-1,1-diethylurea]
IC50 [1, 11]: 14 nM | IC50 [1, 5]: < 1000 nM | IC50 [2, 7]: 52 nM | EC50 ([2]; agonist mode, bound stated): < 1000 nM | IC50 [3, 9]: 14 nM | EC50 [3, 12]: 6.9 nM | EC50 [3, 13]: < 1000 nM | IC50 [3, 10]: < 1000 nM | IC50 [4, 14]: 410 nM | IC50 [4, 6]: < 1000 nM

CCN(CC(F)(F)F)C(=O)N[C@H]1C[C@@H]2c3cccc4[nH]c(C5CC5)c(c34)C[C@H]2N(C)C1 [Compound A17H, 3-((6aR,9S,10aR)-5-cyclopropyl-7-methyl-4,6,6a,7,8,9,10,10a-octahydroindolo[4,3-fg]quinolin-9-yl)-1-ethyl-1-(2,2,2-trifluoroethyl)urea]
IC50 [1, 11]: 13 nM | IC50 [1, 5]: < 1000 nM | IC50 [2, 7]: 25 nM | IC50 [2, 8]: < 1000 nM | IC50 [3, 9]: 11 nM | IC50 [3, 10]: < 1000 nM
